Biological target: PIK3CG (human) (UniProt P48736)
Test: Inhibition of PIK3CG Kinase Activity

PIK3CG (human), sequence (P48736 whole entry, looked up): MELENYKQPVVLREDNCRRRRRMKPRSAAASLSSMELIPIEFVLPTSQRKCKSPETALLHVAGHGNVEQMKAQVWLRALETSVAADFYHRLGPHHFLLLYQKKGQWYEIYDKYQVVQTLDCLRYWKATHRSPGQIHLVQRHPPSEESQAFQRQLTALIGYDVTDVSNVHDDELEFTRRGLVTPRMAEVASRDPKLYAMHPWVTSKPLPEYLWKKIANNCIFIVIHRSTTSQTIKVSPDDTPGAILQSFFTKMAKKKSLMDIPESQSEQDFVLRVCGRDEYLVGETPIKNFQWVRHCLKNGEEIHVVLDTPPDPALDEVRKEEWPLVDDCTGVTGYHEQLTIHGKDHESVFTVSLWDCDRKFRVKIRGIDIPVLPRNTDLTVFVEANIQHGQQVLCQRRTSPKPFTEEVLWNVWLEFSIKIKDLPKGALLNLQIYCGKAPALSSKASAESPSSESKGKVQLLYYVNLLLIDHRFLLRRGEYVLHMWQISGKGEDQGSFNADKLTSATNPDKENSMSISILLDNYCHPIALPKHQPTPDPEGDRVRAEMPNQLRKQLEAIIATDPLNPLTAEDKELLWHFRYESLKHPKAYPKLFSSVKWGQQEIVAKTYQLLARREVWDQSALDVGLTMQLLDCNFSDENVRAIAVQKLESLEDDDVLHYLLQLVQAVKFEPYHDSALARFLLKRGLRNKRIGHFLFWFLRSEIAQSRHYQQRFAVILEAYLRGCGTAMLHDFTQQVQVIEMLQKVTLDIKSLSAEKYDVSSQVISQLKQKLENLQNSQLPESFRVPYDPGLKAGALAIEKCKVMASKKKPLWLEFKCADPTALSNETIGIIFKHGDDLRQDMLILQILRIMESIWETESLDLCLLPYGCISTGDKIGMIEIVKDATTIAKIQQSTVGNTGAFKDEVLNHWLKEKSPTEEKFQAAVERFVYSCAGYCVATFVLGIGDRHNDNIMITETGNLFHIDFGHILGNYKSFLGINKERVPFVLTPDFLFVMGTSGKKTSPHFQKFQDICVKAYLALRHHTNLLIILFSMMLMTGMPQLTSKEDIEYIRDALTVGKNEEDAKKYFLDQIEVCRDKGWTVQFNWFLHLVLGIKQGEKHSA

SMILES	Ki
COc1cc(-c2cc(C)c3c(n2)CN(c2cncc(OCC(F)(F)F)c2)C3=O)cnc1OC	< 100 nM
COc1cc(-c2ccc3c(n2)CN(c2ccc(N4CCC(F)CC4)nc2)C3=O)cnc1OC	< 100 nM
COc1cc(-c2ccc3c(n2)CN(c2ccc(N(C)CC(OC)OC)nc2)C3=O)cnc1OC	100 to 490 nM
COCCn1cc(N2Cc3cc(-c4cnc(OC)c(OC)c4)ccc3C2=O)cn1	100 to 490 nM
COc1cc(-c2ccc3c(n2)CN(c2ccc(N4CCN(CCC#N)CC4)nc2)C3=O)cnc1OC	< 100 nM
COc1cc(-c2ccc3c(n2)[C@H](C)N(c2ccn(CC(C)(C)F)n2)C3=O)cnc1OC	< 100 nM
CCOc1cncc(N2Cc3nc(-c4cnc(OC)c(OC)c4)cc(C)c3C2=O)c1	< 100 nM
CCc1cc(-c2cnc(OC)c(OC)c2)nc2c1C(=O)N(c1cn[nH]c1)C2(C)C	< 100 nM
COc1cc(-c2ccc3c(n2)CN(c2ccc(N4CCN(C)CC4)nc2)C3=O)cnc1OC	< 100 nM
COc1ncc(-c2ccc3c(n2)CN(c2cnn(CC#N)c2)C3=O)c(OC)n1	100 to 490 nM
CCC1c2nc(-c3cnc(OC)c(OC)c3)ccc2C(=O)N1c1cc(COC)n(CC)n1 (stereo not given)	100 to 490 nM
CCOc1cc(-c2cc(C)c3c(n2)CN(c2ccon2)C3=O)cnc1OC	< 100 nM
COc1cc(-c2ccc3c(n2)CN(c2cnn(CCn4cncn4)c2)C3=O)cnc1OC	< 100 nM
COc1ncc(-c2ccc3c(n2)CN(c2cnn(CC(F)(F)F)c2)C3=O)cc1CO	100 to 490 nM
COc1cc(-c2ccc3c(n2)CN(c2cnn([C@@H](CO)C(F)(F)F)c2)C3=O)cnc1OC	< 100 nM
COc1cc(-c2ccc3c(n2)[C@H](C)N(c2ccnc(CC#N)c2)C3=O)cnc1OC	< 100 nM
CCn1cc(N2Cc3cc(-c4cnc(OC)nc4OC)ccc3C2=O)cn1	100 to 490 nM
CCOC(=O)c1cncc(N2Cc3nc(-c4cnc(OC)c(OC)c4)ccc3C2=O)c1	100 to 490 nM
COc1cc(-c2cc(C)c3c(n2)CN(c2cnn(C(C)(C)C(N)=O)c2)C3=O)cnc1OC	< 100 nM
CCNC(=O)c1cc(-c2cc(C)c3c(n2)C2(CCOC2)N(c2cnn(CC(F)(F)F)c2)C3=O)cnc1OC (stereo not given)	< 100 nM

SMILES	Ki
COc1cc(-c2ccc3c(n2)C(C)N(c2ccnc(CC#N)c2)C3=O)cnc1OC (stereo not given)	< 100 nM
COc1cc(-c2cc(C)c3c(n2)CN(c2nc(C)cs2)C3=O)cnc1OC	< 100 nM
COCn1cc(N2Cc3cc(-c4cnc(OC)c(OC)c4)ccc3C2=O)cn1	< 100 nM
CCc1cc(N2Cc3nc(-c4cnc(OC)c(OC)c4)cc(C)c3C2=O)nn1CC	< 100 nM
Cc1cc(-c2cnc(C)c(OCC(F)F)c2)nc2c1C(=O)N(c1ccn([C@H]3CCOC3)n1)C2	< 100 nM
COC(=O)Cc1cncc(N2Cc3nc(-c4cnc(OC)c(OC)c4)cc(C)c3C2=O)c1	< 100 nM
COc1cc(-c2ccc3c(n2)CN(c2cncc(C#CCO)c2)C3=O)cnc1OC	100 to 490 nM
CCn1cc(N2C(=O)c3ccc(-c4cnc(OC)c(OC)c4)nc3[C@H]2C)cn1	< 100 nM
CCOc1cc(-c2cc(C)c3c(n2)CN(c2cnn(CC#N)c2)C3=O)cnc1OC	< 100 nM
COc1cc(-c2ccc3c(n2)CN(c2ccc(=O)n(CC#N)c2)C3=O)cnc1OC	< 100 nM
COc1cc(-c2ccc3c(n2)CN(c2cnn(Cc4cccnc4)c2)C3=O)cnc1OC	< 100 nM
CCOc1cc(-c2cc(C)c3c(n2)CN(c2ccon2)C3=O)cnc1OCC	< 100 nM
CCCn1nc(N2Cc3nc(-c4cnc(OC)c(OC)c4)cc(C)c3C2=O)cc1COC	< 100 nM
COc1cc(-c2cc(C)c3c(n2)CN(c2cncc(CO)c2)C3=O)cnc1OC	< 100 nM
COc1ncc(-c2cc(C)c3c(n2)CN(c2ccn(C(C)(C)C#N)n2)C3=O)cc1OCC(F)F	< 100 nM
COc1cc(-c2ccc3c(n2)C(C)(C)N(c2cnn(CC#N)c2)C3=O)cnc1OC	< 100 nM
COc1cc(-c2cc(C)c3c(n2)CN(c2cccc(C(C)(C)C#N)n2)C3=O)cnc1OC	< 100 nM
N#CCn1cc(N2Cc3cc(-c4cncc(S(N)(=O)=O)c4)ccc3C2=O)cn1	< 100 nM
CCOc1ncc(-c2cc(C)c3c(n2)CN(c2ccon2)C3=O)cc1OC	< 100 nM
COCCOCCOc1ncc(-c2cc(C)c3c(n2)CN(c2cnn(CC#N)c2)C3=O)cc1OC	< 100 nM

SMILES	Ki
CCn1cc(N2C(=O)c3ccc(-c4cnc(OC)c(OC(F)F)c4)nc3[C@@H]2C)cn1	< 100 nM
COCCOc1ncc(-c2cc(C)c3c(n2)C(C)N(c2ccn(C)n2)C3=O)cc1OC (stereo not given)	< 100 nM
COc1cc(-c2ccc3c(n2)CN(c2ccnc(N(C)CCCN(C)C)c2)C3=O)cnc1OC	100 to 490 nM
COc1cc(-c2ccc3c(c2)CN(c2cccc(C#N)c2)C3=O)cnc1OC	100 to 490 nM
COc1cc(-c2cc(Cl)c3c(c2)CN(c2cnn(CC#N)c2)C3=O)cnc1OC	< 100 nM
COc1cc(-c2ccc3c(n2)CN(c2ccc(CN4CCOCC4)nc2)C3=O)cnc1OC	100 to 490 nM
COc1cc(-c2ccc3c(n2)CN(c2cnn(C4CCCCC4O)c2)C3=O)cnc1OC (stereo not given)	100 to 490 nM
CCc1cc(N2Cc3nc(-c4cnc(OC)c(OC)c4)cc(C)c3C2=O)n[nH]1	< 100 nM
Cc1cc(-c2cncc(OCC(F)F)c2)nc2c1C(=O)N(c1cnn(CC#N)c1)C2(C)C	< 100 nM
COc1cc(-c2ccc3c(n2)CN(c2cnn(C4CCOCC4)c2)C3=O)cnc1OC	< 100 nM
COc1cc(-c2cc(C)c3c(n2)CN(c2cnc(NC(C)=O)c(C)c2)C3=O)cnc1OC	< 100 nM
CCOc1cc(N2Cc3nc(-c4cnc(OC)c(OC)c4)cc(C)c3C2=O)ccn1	< 100 nM
CCCOc1cc(-c2cc(C)c3c(n2)C(C)(C)N(c2cnn(CC#N)c2)C3=O)cnc1CC	< 100 nM
CCn1cc(N2Cc3nc(-c4cnc(OC)c(OC)c4)ccc3C2=O)nn1	< 100 nM
COc1ncc(-c2cc(C)c3c(n2)C(C)(C)N(c2cnn(CC(F)(F)F)c2)C3=O)cc1C(=O)NC[C@@H](O)CO	< 100 nM
COc1cc(-c2ccc3c(n2)CN(c2cc(C)[nH]n2)C3=O)cnc1OC	< 100 nM
COc1cc(-c2ccc3c(n2)CN(c2cnn(CCN(C)C)c2)C3=O)cnc1OC	100 to 490 nM
COCCOCCOc1ncc(-c2cc(C)c3c(c2)CN(c2cnn(CC#N)c2)C3=O)cc1OC	< 100 nM
COc1cc(-c2ccc3c(c2)CN(c2cnn(C)c2)C3=O)cnc1OC	100 to 490 nM

Second part, the molecule after the results:

Ki	SMILES
< 100 nM	COc1cc(-c2ccc3c(n2)C(O)N(c2cnn(CC(F)(F)F)c2)C3=O)cnc1OC (stereo not given)
< 100 nM	COc1cncc(-c2cc(C)c3c(n2)CN(c2cnn(CC(F)F)c2)C3=O)c1
< 100 nM	COc1cc(-c2cc(C)c3c(n2)[C@](C)(O)N(c2cnn(CC(F)(F)F)c2)C3=O)cnc1OC
< 100 nM	Cc1cc(-c2cncc(OCC(F)(F)F)c2)nc2c1C(=O)N(c1cnn(CC(F)(F)F)c1)C2
< 100 nM	COc1cncc(-c2cc(C)c3c(n2)CN(c2ccn(CC(F)(F)F)n2)C3=O)c1
< 100 nM	COc1cncc(-c2cc(C)c3c(n2)[C@@]2(CCOC2)N(c2cnn(CC(F)(F)F)c2)C3=O)c1
< 100 nM	COc1cc(-c2cc(C)c3c(n2)[C@@H](C)N(c2cnn(C[C@@H](C)O)c2)C3=O)cnc1OC
< 100 nM	CCOc1cc(-c2cc(C)c3c(n2)C(OCCOC)N(c2cnn(CC(F)(F)F)c2)C3=O)cnc1OC (stereo not given)
< 100 nM	CCc1ncc(-c2cc(C)c3c(n2)C(C)(C)N(c2cnn(CC(F)(F)F)c2)C3=O)cc1OC
< 100 nM	Cc1cc(-c2cnc3ccccc3c2)nc2c1C(=O)N(c1cnn(CC(F)(F)F)c1)C2
< 100 nM	Cc1cc(-c2cncc(OC(F)F)c2)nc2c1C(=O)N(c1cnn(CC(F)(F)F)c1)[C@H]2C
< 100 nM	COc1cc(-c2cc(C)c3c(n2)C(OCC(F)(F)F)N(c2cnn(CC(F)(F)F)c2)C3=O)cnc1OC (stereo not given)
< 100 nM	COc1cc(-c2cc(C)c3c(n2)CN(c2cnn(CC(F)(F)F)c2)C3=O)cnc1C
< 100 nM	Cc1cc(-c2cncc(OC(F)F)c2)nc2c1C(=O)N(c1cnn(C[C@H](C)O)c1)[C@H]2C
< 100 nM	CCOc1cncc(-c2cc(C)c3c(n2)CN(c2cnn(CC(F)F)c2)C3=O)c1
100 to 490 nM	Cc1cc(-c2cncc(C(=O)N3CCC[C@@H]3C)c2)nc2c1C(=O)N(c1cnn(CC(F)(F)F)c1)C2(C)C
100 to 490 nM	C=CC1(O)c2nc(-c3cncc(OC)c3)cc(C)c2C(=O)N1c1cnn(CC(F)(F)F)c1 (stereo not given)
< 100 nM	Cc1cc(-c2cncc(OC(F)F)c2)nc2c1C(=O)N(c1cnn(C)c1)C2C (stereo not given)

Ki	SMILES
< 100 nM	COc1ncc(-c2cc(C)c3c(n2)CN(c2cnn(CC(F)(F)F)c2)C3=O)cc1OC(C)C
100 to 490 nM	COc1cncc(-c2cc(C)c3c(n2)C(C)N(c2cnccn2)C3=O)c1 (stereo not given)
< 100 nM	COc1ncc(-c2ccc3c(n2)C(C)N(c2cnn(CC(F)(F)F)c2)C3=O)cc1O (stereo not given)
100 to 490 nM	CCC(=O)Nc1cncc(-c2cc(C)c3c(n2)C(C)(C)N(c2cnn(CC(F)(F)F)c2)C3=O)c1
< 100 nM	CCOc1cncc(-c2cc(C)c3c(n2)C(C)(OC)N(c2cnn(CC(F)(F)F)c2)C3=O)c1 (stereo not given)
< 100 nM	Cc1cc(-c2cncc(O)c2)nc2c1C(=O)N(c1cnn(CC(F)(F)F)c1)C2
< 100 nM	Cc1cc(-c2cncc(OCC(F)(F)F)c2)cc2c1C(=O)N(c1cnn(CC(F)(F)F)c1)C2C (stereo not given)
100 to 490 nM	Cc1cc(-c2cncc(C(=O)NC3CC3)c2)nc2c1C(=O)N(c1cnn(CC(F)(F)F)c1)C2(C)C
< 100 nM	C=CCNC(=O)c1cncc(-c2cc(C)c3c(n2)C(C)(C)N(c2cnn(CC(F)(F)F)c2)C3=O)c1
< 100 nM	Cc1cc(-c2cncc(S(C)(=O)=O)c2)nc2c1C(=O)N(c1cnn(CC(F)(F)F)c1)[C@@H]2C
100 to 490 nM	CCCOCCOc1ncc(-c2cc(C)c3c(n2)CN(c2cnn(CC(F)(F)F)c2)C3=O)cc1OC
< 100 nM	COc1ncc(-c2cc(C)c3c(n2)C(C)N(c2cnn(CC(F)F)c2)C3=O)cc1C(=O)NCC(F)F (stereo not given)
< 100 nM	Cc1cc(-c2cncc(S(=O)(=O)NC(C)C)c2)nc2c1C(=O)N(c1cnn(CC(F)(F)F)c1)C2(C)C
< 100 nM	CCNC(=O)c1cc(-c2cc(C)c3c(n2)C(C)(C)N(c2cnn(CC(F)(F)F)c2)C3=O)cnc1OC
< 100 nM	COc1cncc(-c2cc(C)c3c(n2)[C@@H](C)N(c2cnn(CC(F)(F)F)c2)C3=O)c1
< 100 nM	COc1cncc(-c2cc(C)c3c(n2)C2(CCC2)N(c2cnn(CC(F)(F)F)c2)C3=O)c1
< 100 nM	COc1ncc(-c2cc(C)c3c(n2)C(C)(C)N(c2cnn(CC(F)(F)F)c2)C3=O)cc1C(=O)N[C@@H]1CCOC1
< 100 nM	COc1cc(-c2cc(C)c3c(n2)C(C)N(c2cnn(CC(F)(F)F)c2)C3=O)cnc1C (stereo not given)

Reference: the Kinase Knowledgebase extract (Sharma et al. 2016)
